In paper PMC6469685 (Cell, 2018):

Key:
Experiment in all cases: NBD fluorescence titration
Format in all cases: binding
[1] = molecular target: T1, StARD1 (StAR; HMBP-3C-STAR.66–285) (Homo sapiens, UniProt P49675); conditions: labelled compound
T1 sequence (P49675 66-285): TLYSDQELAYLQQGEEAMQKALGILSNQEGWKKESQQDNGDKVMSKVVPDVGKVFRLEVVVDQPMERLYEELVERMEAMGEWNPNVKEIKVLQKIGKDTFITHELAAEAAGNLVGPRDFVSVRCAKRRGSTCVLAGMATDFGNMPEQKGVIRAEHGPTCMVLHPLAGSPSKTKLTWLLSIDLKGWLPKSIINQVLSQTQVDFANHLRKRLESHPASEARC

[2] = molecular target: Aster-C206–528 (ASTER domain of Aster-C) (Mus musculus, UniProt Q8CI52)
[3] = molecular target: T2, Aster-A261–576 (ASTER domain of Aster-A) (Mus musculus, UniProt Q8VEF1)
T2 sequence (Q8VEF1 261-576): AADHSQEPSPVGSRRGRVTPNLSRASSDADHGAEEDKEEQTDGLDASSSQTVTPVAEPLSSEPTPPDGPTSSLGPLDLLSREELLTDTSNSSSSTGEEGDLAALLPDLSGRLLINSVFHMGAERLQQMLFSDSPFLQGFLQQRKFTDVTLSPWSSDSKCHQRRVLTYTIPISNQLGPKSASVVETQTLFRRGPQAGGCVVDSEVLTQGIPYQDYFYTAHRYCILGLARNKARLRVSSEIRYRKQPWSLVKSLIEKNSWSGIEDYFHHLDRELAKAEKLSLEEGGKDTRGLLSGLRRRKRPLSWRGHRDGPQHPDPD

Sequence of Aster-C206–528 (ASTER domain of Aster-C) (Q8CI52 206-528): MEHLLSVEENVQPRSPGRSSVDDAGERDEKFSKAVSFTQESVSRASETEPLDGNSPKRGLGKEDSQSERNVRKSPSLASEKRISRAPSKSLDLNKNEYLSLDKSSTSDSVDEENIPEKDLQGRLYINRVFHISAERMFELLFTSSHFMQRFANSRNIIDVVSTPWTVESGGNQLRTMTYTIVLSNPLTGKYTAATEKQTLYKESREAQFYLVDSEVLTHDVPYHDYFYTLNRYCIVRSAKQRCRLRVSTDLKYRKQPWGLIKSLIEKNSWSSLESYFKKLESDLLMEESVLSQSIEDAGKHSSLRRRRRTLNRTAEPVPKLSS

In the case of `C[C@H](CNc1ccc([N+](=O)[O-])c2nonc12)[C@H]1CC[C@H]2[C@@H]3CC=C4C[C@@H](O)CC[C@]4(C)[C@H]3CC[C@]12C` [22-NBD-cholesterol], the Kd [1] is reported as “Comparison of NBD-cholesterol binding to Aster-A, Aster-B and StarD1”, the Kd [2] is reported as less than 0.1 µM and the Kd [3] is reported as less than 0.1 µM.
